Key:
LdecOBP33 [1] = experiment: Saturation fluorescence binding assay of 1-NPN with recombinant LdecOBP33; parameters: species or system Leptinotarsa decemlineata; details: 2 µM LdecOBP33, 1-NPN 0-25 µM, 20 mM Tris pH 7.4, 25 °C; one-site saturation binding accounting for ligand depletion; read-out: dissociation constant (Kd)
Description: (§1) N-phenyl-1-naphthylamine (1-NPN) was used as a fluorescent reporter to assess the ligand-binding affinity of LdecOBP33 toward various plant volatiles and pesticides; this was chosen due to its reported success in prior studies. […] Each assay was performed at 25 ± 1 °C in a 96-well flat-bottom black plate with a final volume of 200 µL and 3 replicates. The relative fluorescence intensity was measured with a 337 nm/10 nm excitation filter and a 413 nm/10 nm emission filter, using a multi-mode Tecan Spark® plate reader. […] The equation Ki=IC50/(1+NPN/KdNPN) was used to calculate the Ki values of the competitor ligands.

[2] = ref PubChem database (accessed on 31 October 2025); cited from earlier work
LdecOBP33 [3] = experiment: Competitive fluorescence displacement binding assay (1-NPN reporter); parameters: species or system Leptinotarsa decemlineata; details: for IC50 / displacement of the 1-NPN probe: 2 µM LdecOBP33, 2 µM 1-NPN; for IC50: competitor 0-450 µM, 20 mM Tris pH 7.4, 25 °C, mean ± SE (n = 3); for displacement of the 1-NPN probe: competitor up to 450 µM; for Ki: calculated from IC50 with Cheng and Prusoff equation, Ki=IC50/(1+NPN/KdNPN)
Description: as §1

CPB [4] = experiment: Whole-antenna contact bioassay with imidacloprid; type: in vivo, Leptinotarsa decemlineata; details: for mortality: after 36 h; for mortality / average mortality: 0.5 µL of 0.45 µg/µL per antenna
Description: After feeding with RNAi, the control or LdecOBP33 knockdown male CPBs were placed individually into fresh Petri dishes and anesthetized on ice for 10 min. Afterwards, 0.5 µL of an imidacloprid solution (Sigma Aldrich, St. Louis, MO, USA)—at various concentrations—in acetone was topically applied to each antenna of each CPB using a Hamilton 25 µL model #702 syringe (Hamilton, Reno, NV, USA). Care was taken to ensure that the pesticide solution was applied exclusively to the antennae. […] After treatment, all CPBs were placed in a fresh Petri dish with fresh potato leaves; the dish was kept in a rearing room maintained at 25 ± 1 °C, 60 ± 5% humidity, and a 16:8 L/D photoperiod. CPB mortality was assessed at 0, 3, 6, and 12 h, and every 12 h thereafter, for a total of five days post-treatment. The determination of recovery for individual CPBs after pesticide treatment was adapted from prior studies using three criteria. […] Second, beetles were placed prone and given two minutes to flip upright; those unable to do so were classified as dead. Finally, beetles were placed upside down on the handle of a paintbrush to assess their mobility; individuals that could not walk their full body length or fell off were considered dead. Six biological replicates were conducted, each consisting of 8–10 beetles.

CPB [5] = experiment: Baseline mortality exposure to imidacloprid in adults, resistant vs susceptible strains; type: in vivo, Leptinotarsa decemlineata
From the text: Two different populations of CPBs were used for this study. The susceptible CPB population was purchased from French Agricultural Research (Lamberton, MN, USA). This population was initially collected in 2003 from Long Island, NY; following this, it was reared in laboratory conditions with no pesticide exposure. Neonicotinoid-resistant CPBs were collected from the University of Maine Aroostook Research Farm (Presque Isle, ME, USA). Baseline mortality exposure to imidacloprid in adults indicated a ~30-fold resistance ratio between the resistant and susceptible strains. Both CPB populations were reared in a Penn State facility greenhouse at 25 ± 1 °C under a 16:8 L/D photoperiod. Beetles were fed a constant supply of Red Norland potato plants and housed in insect and butterfly habitat cages (Restcloud, Guangzhou, China). Eggs were collected from plants and stored in Petri dishes maintained at 25 ± 1 °C and 60 ± 5% humidity under a 16:8 L/D photoperiod, located within a rearing room. Newly emerged first-instar larvae fed upon fresh potato plant leaflets up to the third instar and were then transferred back to the greenhouse.

SMILES | LogP [2] | IC50 (LdecOBP33 [3]) | displacement of the 1-NPN probe (LdecOBP33 [3]) | Ki (LdecOBP33 [3]) | also measured
c1ccc(Nc2cccc3ccccc23)cc1 [1-NPN, N-phenyl-1-naphthylamine] | – | – | – | – | Kd (LdecOBP33 [1]): 4.53 ± 0.31 µM
CCC/C=C/C=O [(E)-2-Hexenal] | 1.50 | 401 ± 16.3 µM | over 50% | 301 µM | –
CC/C=C/CCO [(E)-3-Hexen-1-ol] | 1.30 | > 450 µM | No noticeable displacement | > 338 µM | –
CC/C=C\CCOC(=O)CCC [(Z)-3-Hexenyl-butyrate] | – | 24 ± 2.05 µM | over 50% | 18 µM | –
CNC(=O)Oc1cccc2ccccc12 [Carbaryl] | – | > 450 µM | No noticeable displacement | > 338 µM | –
COP(=S)(OC)Oc1nc(Cl)c(Cl)cc1Cl [Chlorpyrifos-methyl] | 4.30 | 63.7 ± 3.32 µM | over 50% | 47.8 µM | –
CCOP(=S)(OCC)Oc1nc(Cl)c(Cl)cc1Cl [Chlorpyrifos] | 4.96 | 45.8 ± 3.53 µM | over 50% | 34.4 µM | –
CN/C(=N\[N+](=O)[O-])NCc1cnc(Cl)s1 [Clothianidin] | 0.70 | 94.5 ± 4.24 µM | over 50% | 71 µM | –
OC[C@H]1OC(O)[C@H](O)[C@@H](O)[C@@H]1O (stereo partly drawn) [D-Glucose] | – | > 450 µM | No noticeable displacement | > 338 µM | –
O=[N+]([O-])NC1=NCCN1Cc1ccc(Cl)nc1 [Imidacloprid] | 0.57 | 263 ± 15.2 µM | over 50% | 197 µM | increase of mortality, dsLdecOBP33-treated vs control (CPB [4]; by 120 h): 19%; mortality (CPB [4]; control (dsGFP) resistant males): 55%; average mortality (CPB [4]; control (dsGFP) resistant males, by 120 h): 12%; mortality (CPB [4]; dsLdecOBP33-KD resistant males): 81%; average mortality (CPB [4]; dsLdecOBP33-treated resistant males, by 120 h): 32%; LD50 (CPB [4]; preliminary tests, 0.5 µL application in acetone to each antenna): 0.45 µg/µL; resistance ratio between the resistant and susceptible strains (CPB [5]): ~ 30 fold
C=C[C@](C)(O)CCC=C(C)C [L-Linalool] | – | 48.3 ± 1.77 µM | over 50% | 36.2 µM | –
COC(=O)c1ccccc1O [Methyl salicylate] | 2.50 | 396 ± 20 µM | over 50% | 298 µM | –
CCCCCCCCC=O [Nonanal] | 3.30 | 7.29 ± 0.53 µM | over 50% | – | –
CC(C)=CC1C(C(=O)OCN2C(=O)C3=C(CCCC3)C2=O)C1(C)C (stereo not shown) [Tetramethrin] | 4.70 | 29.1 ± 1.78 µM | over 50% | 21.8 µM | –

Source: PMC12733967, “Pleiotropic Function of Antenna-Specific Odorant-Binding Protein Links Xenobiotic Adaptation and Olfaction in Leptinotarsa decemlineata” (Insects, 2025)
